Where two headings read alike, the source gives them in different places.
Assays:
Staphyloccci epidermidis = experiment: Antimicrobial susceptibility (MIC, agar dilution); type: cell-based; conditions: Isosensitest agar, 128-1 μg/mL, 37° C. for 24 h
Protocol: (§1) For each putative antimicrobial, determination of the antimicrobial susceptibility was performed in strict accordance with the recommendations of the British Society for Antimicrobial Chemotherapy. Isosensitest agar (Oxoid) was prepared according to the manufacturer's instructions and sterilized by autoclaving at 116° C. for 20 min. This was then cooled to 50° C. in a waterbath. A 10 mg sample of each antimicrobial was dissolved in 1 mL DMSO. A 256 μL aliquot was added to 19.744 mL of molten Isosensitest agar at 50° C. and mixed well. This was poured into a Petri dish to produce a culture plate containing a final concentration of 128 μg/mL. Smaller volumes of solution (ranging from 128-2 μL) were also incorporated into agar plates in similar fashion to produce a final concentration range of 128-1 μg/mL. A set of control plates was prepared containing DMSO at an identical concentration range without antimicrobial.
(§2) A panel of microorganisms was obtained from the National Collection of Type Cultures (NCTC), Colindale, UK, the National Collection of Pathogenic Fungi (NCPF), Colindale, UK, and the American Type Culture Collection (ATCC), Manassas, Va. USA. The panel included a range of pathogenic species and comprised Bacillus subtillis, Listeria monocytogenes, Staphyloccci epidermidis, Staphylococcus aureus, Staphylococcus aureus (MRSA) and Streptococcis pyogenes, all of which are Gram-positive bacteria. Each strain was cultured onto Columbia agar (Oxoid) and incubated overnight at 37° C. Colonies were then suspended in sterile distilled water (SDW) to produce a suspension of 1.5×10^8 colony forming units CFU/mL using a densitometer. This suspension was then diluted 1/15 in SDW and 1 μL was inoculated onto all test media using a semi-automated multipoint inoculator (final inoculum: 10 000 CFU per spot). All media were incubated at 37° C. for 24 h and examined for the presence of growth. […] All tests were repeated on a separate occasion to ensure reproducibility.
(§3) Determination of the antimicrobial susceptibility of the samples containing the isolated R and S enantiomers was performed as set out in Example 2.

Staphylococcus aureus = experiment: Antimicrobial susceptibility (MIC, agar dilution); type: cell-based; conditions: Isosensitest agar, 128-1 μg/mL, 37° C. for 24 h
Protocol: as §1, §2, §3

[1] = test system: Staphylococcus aureus (MRSA); experiment: Antimicrobial susceptibility (MIC, agar dilution); type: cell-based; conditions: Isosensitest agar, 128-1 μg/mL, 37° C. for 24 h
Protocol: as §1, §2, §3

Bacillus subtilis = experiment: Antimicrobial susceptibility (MIC, agar dilution); type: cell-based; conditions: Isosensitest agar, 128-1 μg/mL, 37° C. for 24 h
Protocol: as §1, §2, §3

Streptococcis pyogenes = experiment: Antimicrobial susceptibility (MIC, agar dilution); type: cell-based; conditions: Isosensitest agar, 128-1 μg/mL, 37° C. for 24 h
Protocol: as §1, §2, §3

Listeria monocytogenes = experiment: Antimicrobial susceptibility (MIC, agar dilution); type: cell-based; conditions: Isosensitest agar, 128-1 μg/mL, 37° C. for 24 h
Protocol: as §1, §2, §3

[2] = aqueous; cited from earlier work
RSV A2 strain = experiment: Infected cell viability assay (A549 only); type: cell-based, Human RSV (Respiratory Syncytial Virus); conditions: human respiratory syncytial virus, moi 0.1, 8 days
Protocol: (§4) Notes Cell obtained from ATCC and virus prep was subjected to one round of centrifugation through a 40% (V/V) glycerol to remove any interferon produced from infected cells. Growth medium was Dulbecco's modified Eagle's medium (DMEM) with 10% (v/v) foetal calf serum (FCS), Viral maintenance medium was DMEM+2% (v/v) FCS
96 wells plates were set up as previously described. As before a 2 fold serial dilution of 5-Phenyl-S-3-amino-2,3-dihydro-1H-1,4-benzodiazepin-2-one (5) was added prior to addition of virus at a multiplicity of infection (moi) of 0.1, as determined by a plaque assay, in a volume of 50 μl (starting conc 100 μM). After incubating for 4 hours RSV A2 strain was added at an moi of 0.1 maintaining the concentration of 5-Phenyl-S-3-amino-2,3-dihydro-1H-1,4-benzodiazepin-2-one (5). As before, DMSO was the control. The final lane was a mock infected minus 5-Phenyl-S-3-amino-2,3-dihydro-1H-1,4-benzodiazepin-2-one (5) to show viability of cells after 8 days incubation.
Every two days for up to 8 days the media plus drug was replaced to maintain activity, after 8 days cell viability was assayed by cell staining with methylene blue. Each experiment was performed twice with similar results, see FIG. 14.
An alternative experiment was set up as before except virus, at an moi of 0.1, was added before the drug and allowed to incubate for 4 hours. […]

RSV = experiment: Plaque reduction assay; type: cell-based, Human RSV (Respiratory Syncytial Virus); conditions: A549, 10 μM added 3-4 hours before RSV; control titre 4.5×10^5
Protocol: as §4
A549 cells were seeded into a T25 flask and grown until 60-70% confluent. To one set of flasks (n=3) 5-Phenyl-S-3-amino-2,3-dihydro-1H-1,4-benzodiazepin-2-one (5) in DMSO was added at a concentration of 10 μM and allowed to incubate for 3-4 hours before the addition of RSV at an […] and incubated until extensive cytopathic effect (cpe) was evident, usually after 3 days. The concentration of 5-Phenyl-S-3-amino-2,3-dihydro-1H-1,4-benzodiazepin-2-one (5) was kept constant by replacing the medium each day (RSV is largely cell associated). After which virus was harvested by homogenising the cells in a final volume of 1 ml. The viral titre was determined by plaque assay and staining after 8 days. A control assay was conducted using DMSO in place of the DMSO solution of 5-Phenyl-S-3-amino-2,3-dihydro-1H-1,4-benzodiazepin-2-one (5). […]

Cell cytotoxicity CC50 = type: cell-based; conditions: human, 6-8 days, top concentration 100 μM, read-out: CC50 (concentration at which 50% cell toxicity is observed)
From the text: as §4
Cell Cytotoxicity—CC50 (concentration at which 50% cell toxicity is observed):
A549 cells and HeLa cells were used to seed a set of 96 well plates grown until 50% confluent, a 2 fold serial dilution of 5-Phenyl-S-3-amino-2,3-dihydro-1H-1,4-benzodiazepin-2-one (5) was performed on each cell line with DMSO (only) as control starting with 100 μM of 5-Phenyl-S-3-amino-2,3-dihydro-1H-1,4-benzodiazepin-2-one (5). Medium used was DMEM+2% FCS (normal medium for viral growth).
Cells were allowed to grow for 6-8 days to mimic a TCID50 assay after which cell viability was determined by adding Almar blur (similar to XTT) and reading at 600 nm (excitation 540 nm). No significant difference was observed between cells treated with 5-Phenyl-S-3-amino-2,3-dihydro-1H-1,4-benzodiazepin-2-one (5) and the DMSO control. No significant difference was observed between HeLa and A549 cells.

O=C1Nc2ccccc2C(c2ccccc2)=N[C@H]1Nc1c(F)c(F)nc(F)c1F [R enantiomer, 5-Phenyl-R-3-[(tetrafluoropyridin-4-yl)amino]-2,3-dihydro-1H-1,4-benzodiazepin-2-one]
antibacterial activity (by minimum inhibitory concentration) (Staphyloccci epidermidis): effective | antibacterial activity (by minimum inhibitory concentration) (Staphylococcus aureus): effective | antibacterial activity (by minimum inhibitory concentration) [1]: effective

O=c1n(-c2c(F)c(F)nc(F)c2F)c2ccccc2n1-c1c(F)c(F)nc(F)c1F
melting point: 154.9 to 156 °C

O=C1Nc2ccccc2C(c2ccccc2)=N[C@@H]1Nc1c(F)c(F)nc(F)c1F (single isomer, unassigned; enantiomer 5) [S enantiomer, 5-Phenyl-S-3-[(tetrafluoropyridin-4-yl)amino]-2,3-dihydro-1H-1,4-benzodiazepin-2-one]
antibacterial activity (by minimum inhibitory concentration) (Staphyloccci epidermidis): effective | antibacterial activity (by minimum inhibitory concentration) (Staphylococcus aureus): effective | antibacterial activity (by minimum inhibitory concentration) [1]: effective | antibacterial activity (by minimum inhibitory concentration) (Bacillus subtilis): effective | antibacterial activity (by minimum inhibitory concentration) (Streptococcis pyogenes): effective | antibacterial activity (by minimum inhibitory concentration) (Listeria monocytogenes): effective

O=C1C(=O)N(c2c(F)c(F)nc(F)c2F)c2ccccc21
melting point: 160.3 to 162.6 °C

O=C1Nc2ccc(Cl)cc2C(c2ccccc2Cl)=NC1O (centres unmarked) [Lorazepam]
pKa [2]: ~13.0

O=C1Nc2ccccc2C(c2ccccc2)=NC1Nc1c(F)c(F)nc(F)c1F (racemic) [Compound 5, 5-Phenyl-3-[(tetrafluoropyridin-4-yl)amino]-2,3-dihydro-1H-1,4-benzodiazepin-2-one]
antibacterial activity (by minimum inhibitory concentration) (Staphyloccci epidermidis): exhibited antibacterial activity | antibacterial activity (by minimum inhibitory concentration) (Staphyloccci epidermidis; listed as racemate): effective | antibacterial activity (by minimum inhibitory concentration) (Staphylococcus aureus): exhibited antibacterial activity | antibacterial activity (by minimum inhibitory concentration) (Staphylococcus aureus; listed as racemate): effective | antibacterial activity (by minimum inhibitory concentration) [1]: exhibited antibacterial activity | antibacterial activity (by minimum inhibitory concentration) ([1]; listed as racemate): effective | antibacterial activity (by minimum inhibitory concentration) (Bacillus subtilis): not | antibacterial activity (by minimum inhibitory concentration) (Streptococcis pyogenes): exhibited antibacterial activity | antibacterial activity (by minimum inhibitory concentration) (Streptococcis pyogenes; listed as racemate): effective | antibacterial activity (by minimum inhibitory concentration) (Listeria monocytogenes): exhibited antibacterial activity | antibacterial activity (by minimum inhibitory concentration) (Listeria monocytogenes; listed as racemate): effective | EC50 (RSV A2 strain; A549, compound added 4 hours before virus, Reed and Meunch, read-out: half maximal effective concentration (EC50)): 2400 nM | EC50 (RSV A2 strain; A549, virus added 4 hours before the drug, Reed & Meunch, read-out: EC50): ~3000 nM | viral titre after exposure (RSV): 2.3×10^3 viral infectivity units | CC50 (Cell cytotoxicity CC50; A549 cells): ≥ 100 µM | CC50 (Cell cytotoxicity CC50; HeLa cells): ≥ 100 µM

COC(=O)CNc1c(F)c(F)nc(F)c1F
melting point: 67.8 to 68.7 °C

Reference: patent publication US10406166B2, “Antimicrobial compound” (priority 2015, dated 2019)
